Experimental data: article PMC10294756 (Journal of Enzyme Inhibition and Medicinal Chemistry, 2023)
Like-named read-outs stand apart in the source and are kept apart here.

What was measured:
SMMC-7721 = assay: MTT assay, SMMC-7721 cells; assay type: cell-based, human; conditions: read-out: IC50 SMMC-7721
[1] = test system: HCC cell lines (HepG2, HuH7, and SMMC-7721); assay: MTT assay, results stated over the three HCC cell lines; assay type: cell-based; conditions: Homo sapiens, 48 h, read-out: IC50 against HCC cells (span over cell lines)
HuH7 = assay: MTT assay, HuH7 cells; assay type: cell-based, human; conditions: read-out: IC50 HuH7
HepG2 = assay: MTT assay, HepG2 cells; assay type: cell-based, human; conditions: for IC50: read-out: IC50 HepG2
LO2 = assay: MTT assay, normal hepatocyte LO2; assay type: cell-based, human
[2] = Homo sapiens, L02, 48 h, read-out: IC50 LO2, normal liver cell line, MTT, 48 h
[3] = MTT, 48 h, mean ± SD of three experiments

SMILES | IC50 (SMMC-7721; Homo sapiens, SMMC-7721, 48 h) | IC50 [1] | IC50 (HuH7; Homo sapiens, Huh-7, 48 h) | IC50 (HepG2; Homo sapiens, HepG2, 48 h) | IC50 (LO2; [2]) | IC50 (SMMC-7721; [3]) | IC50 (HuH7; [3]) | IC50 (HepG2; [3]) | IC50 (LO2; read-out: IC50 LO2, normal liver cell line, MTT, 48 h) | effect on the inhibition of HepG2 cell proliferation by TMHA37 (HepG2; 20 μM CDIM8, 5 μM TMHA37, 48 h, MTT)
Cc1cc(Nc2ccc(C(=O)N/N=C/c3ccsc3)cc2)c2cccc(O)c2n1 [7A, (E)-4-((8-hydroxy-2-methylquinolin-4-yl)amino)-N'-(thiophen-3-ylmethylene)benzohydrazide] | 52.8 ± 1.56 µM | 30.8 to 52.8 µM | 31.7 ± 3.6 µM | 30.8 ± 2.52 µM | – | – | – | – | – | –
Cc1cc(Nc2ccc(C(=O)N/N=C/c3sccc3Br)cc2)c2cccc(O)c2n1 [7B, (E)-N'-((3-bromothiophen-2-yl)methylene)-4-((8-hydroxy-2-methylquinolin-4-yl)amino)benzohydrazide] | 26.1 ± 1 µM | < 30 µM | 18 ± 1.26 µM | 16.2 ± 1.53 µM | > 90 µM | – | – | – | – | –
Cc1cc(Nc2ccc(C(=O)N/N=C/c3cc(Br)cs3)cc2)c2cccc(O)c2n1 [7C, (E)-N'-((4-bromothiophen-2-yl)methylene)-4-((8-hydroxy-2-methylquinolin-4-yl)amino)benzohydrazide] | 16 ± 0.54 µM | < 30 µM | 21.2 ± 2.28 µM | 16.4 ± 0.7 µM | 21 ± 1.18 µM | – | – | – | – | –
CSc1ccc(/C=N/NC(=O)c2ccc(Nc3cc(C)nc4c(O)cccc34)cc2)cc1 [7E, (E)-4-((8-hydroxy-2-methylquinolin-4-yl)amino)-N'-(4-(methylthio)benzylidene)benzohydrazide] | 22.94 ± 0.03 µM | – | 25.6 ± 1.81 µM | 17.7 ± 0.3 µM | > 90 µM | – | – | – | – | –
Cc1cc(Nc2ccc(C(=O)N/N=C/c3ccccc3Cl)cc2)c2cccc(O)c2n1 [7F, (E)-N'-(2-chlorobenzylidene)-4-((8-hydroxy-2-methylquinolin-4-yl)amino)benzohydrazide] | 17.9 ± 1.03 µM | – | 22.3 ± 1.88 µM | 13.6 ± 2.14 µM | 15 ± 2.16 µM | – | – | – | – | –
Cc1cc(Nc2ccc(C(=O)N/N=C/c3cccc(C(F)(F)F)c3)cc2)c2cccc(O)c2n1 [7G, (E)-4-((8-hydroxy-2-methylquinolin-4-yl)amino)-N'-(3-(trifluoromethyl)benzylidene)benzohydrazide] | 20.6 ± 2.56 µM | – | 6.88 ± 2.04 µM | 15.5 ± 1.45 µM | 19.9 ± 2.01 µM | – | – | – | – | –
Cc1cc(Nc2ccc(C(=O)N/N=C/c3ccc(C(F)(F)F)cc3)cc2)c2cccc(O)c2n1 [7H, (E)-4-((8-hydroxy-2-methylquinolin-4-yl)amino)-N'-(4-(trifluoromethyl)benzylidene)benzohydrazide] | 27.68 ± 0.25 µM | – | 23.3 ± 0.33 µM | 18.1 ± 0.98 µM | > 90 µM | – | – | – | – | –
C#Cc1ccc(/C=N/NC(=O)c2ccc(Nc3cc(C)nc4c(O)cccc34)cc2)cc1 [7I, (E)-N'-(4-ethynylbenzylidene)-4-((8-hydroxy-2-methylquinolin-4-yl)amino)benzohydrazide] | 33.9 ± 3.58 µM | – | 12.8 ± 0.36 µM | 28.3 ± 1.17 µM | – | – | – | – | – | –
COc1cc(/C=N/NC(=O)c2ccc(Nc3cc(C)nc4c(O)cccc34)cc2)cc(OC)c1 [7J, (E)-N’-(3,5-dimethoxybenzylidene)-4-((8-hydroxy-2-methylquinolin-4-yl)amino)benzohydrazide] | 37.2 ± 2.23 µM | – | 26 ± 0.54 µM | 27.5 ± 2.12 µM | – | – | – | – | – | –
COc1ccc(F)c(/C=N/NC(=O)c2ccc(Nc3cc(C)nc4c(O)cccc34)cc2)c1 [7K, (E)-N'-(2-fluoro-5-methoxybenzylidene)-4-((8-hydroxy-2-methylquinolin-4-yl)amino)benzohydrazide] | 28.2 ± 2.06 µM | – | 34.6 ± 2.97 µM | 20.1 ± 1.18 µM | – | – | – | – | – | –
Cc1cc(Nc2ccc(C(=O)N/N=C/c3cccc(F)c3F)cc2)c2cccc(O)c2n1 [7L, (E)-N'-(2,3-difluorobenzylidene)-4-((8-hydroxy-2-methylquinolin-4-yl)amino)benzohydrazide] | 25.4 ± 1.63 µM | – | 15.9 ± 2.8 µM | 21 ± 1.51 µM | 25 ± 3.16 µM | – | – | – | – | –
Cc1cc(Nc2ccc(C(=O)N/N=C/c3ccc(Br)c(F)c3)cc2)c2cccc(O)c2n1 [7M, (E)-N'-(4-bromo-3-fluorobenzylidene)-4-((8-hydroxy-2-methylquinolin-4-yl)amino)benzohydrazide] | 18.2 ± 1.94 µM | 15.8 to 27.6 µM | 23.8 ± 1.82 µM | 15.8 ± 3.68 µM | > 90 µM | – | – | – | – | –
Cc1cc(Nc2ccc(C(=O)N/N=C/c3ccc(F)c(Br)c3)cc2)c2cccc(O)c2n1 [7N, (E)-N'-(3-bromo-4-fluorobenzylidene)-4-((8-hydroxy-2-methylquinolin-4-yl)amino)benzohydrazide] | 21.1 ± 1.01 µM | 15.8 to 27.6 µM | 15.4 ± 2.09 µM | 27.6 ± 0.81 µM | > 90 µM | – | – | – | – | –
Cc1cc(Nc2ccc(C(=O)N/N=C/c3ccc(F)cc3Br)cc2)c2cccc(O)c2n1 [7O, (E)-N'-(2-bromo-4-fluorobenzylidene)-4-((8-hydroxy-2-methylquinolin-4-yl)amino)benzohydrazide] | 16.9 ± 1.97 µM | – | 13.7 ± 0.61 µM | 15.7 ± 1.31 µM | 69.2 ± 4.58 µM | – | – | – | – | –
Cc1cc(Nc2ccc(C(=O)N/N=C/c3cc(C(F)(F)F)ccc3F)cc2)c2cccc(O)c2n1 [7P, (E)-N'-(2-fluoro-5-(trifluoromethyl)benzylidene)-4-((8-hydroxy-2-methylquinolin-4-yl)amino)benzohydrazide] | 8.82 ± 0.41 µM | 7.78 to 19.3 µM | 19.3 ± 1.49 µM | 7.78 ± 1.33 µM | 18 ± 1.55 µM | – | – | – | – | –
Cc1cc(Nc2ccc(C(=O)N/N=C/c3ccc(F)c(C(F)(F)F)c3)cc2)c2cccc(O)c2n1 [7Q, (E)-N'-(4-fluoro-3-(trifluoromethyl)benzylidene)-4-((8-hydroxy-2-methylquinolin-4-yl)amino)benzohydrazide] | 21.6 ± 1.13 µM | – | 29.2 ± 3.24 µM | 12.7 ± 1.61 µM | 4.82 ± 0.67 µM | – | – | – | – | –
Cc1cc(Nc2ccc(C(=O)N/N=C/c3cccc(Br)n3)cc2)c2cccc(O)c2n1 [7R, (E)-N'-((6-bromopyridin-2-yl)methylene)-4-((8-hydroxy-2-methylquinolin-4-yl)amino)benzohydrazide] | 45.8 ± 0.64 µM | 30 to 45.8 µM | 32.2 ± 4.3 µM | 30 ± 0.92 µM | – | – | – | – | – | –
Cc1cc(Nc2ccc(C(=O)N/N=C/c3cc4ccccc4nc3Cl)cc2)c2cccc(O)c2n1 [7U, (E)-N'-((2-chloroquinolin-3-yl)methylene)-4-((8-hydroxy-2-methylquinolin-4-yl)amino)benzohydrazide] | 19.9 ± 0.94 µM | – | 30.9 ± 3.39 µM | 17.6 ± 1.09 µM | 18 ± 1.29 µM | – | – | – | – | –
Cc1cc(Nc2ccc(C(=O)N/N=C/c3csc4ccccc34)cc2)c2cccc(O)c2n1 [7V, (E)-N'-(benzo[b]thiophen-3-ylmethylene)-4-((8-hydroxy-2-methylquinolin-4-yl)amino)benzohydrazide] | 21.7 ± 1.96 µM | – | 20.4 ± 2.75 µM | 13.7 ± 2.85 µM | 3.06 ± 0.11 µM | – | – | – | – | –
N.N.[Cl][Pt][Cl] [CDDP, Cisplatinum, reference compound] | – | – | – | – | – | 1.58 ± 0.08 µM | 3.69 ± 0.55 µM | 2.21 ± 0.35 µM | 4.23 ± 0.52 µM | –
Oc1ccc(C(c2c[nH]c3ccccc23)c2c[nH]c3ccccc23)cc1 [CDIM8, reference compound] | – | – | – | – | – | – | – | – | – | significantly reversed the inhibitory effect of TMHA37 on HepG2 cell proliferation
CC1=C(O)C(=O)C=C2C1=CC=C1[C@@]2(C)CC[C@@]2(C)[C@@H]3C[C@](C)(C(=O)O)CC[C@]3(C)CC[C@]12C [Celastrol, reference compound] | 16 ± 3.28 µM | – | 34.9 ± 2.21 µM | 18.6 ± 1.01 µM | – | – | – | – | – | –
